Laboratory results from patent US7915291B2, “Hepatitis C virus inhibitors” (Bristol-Myers Squibb Company, priority 2002, dated 2011).

Legend:
[1] = target: HCV NS3/4A protease complex, BMS strain (UniProt P27958, C1454S/C1711G, species not given/STRAIN_BMS); test: Recombinant HCV NS3/4A protease complex FRET peptide assay (BMS strain); type: biochemical, HCV genotype 1a; settings: NS3/4A BMS strain; read-out: IC50 range
Source text: Recombinant HCV NS3/4A Protease Complex FRET Peptide Assay
The purpose of this in vitro assay was to measure the inhibition of HCV NS3 protease complexes, derived from the BMS, H77C or J416S strains, as described below, by compounds of the present invention.
Serum from an HCV-infected patient was obtained from Dr. T. Wright, San Francisco Hospital. An engineered full-length cDNA (compliment deoxyribonucleic acid) template of the HCV genome (BMS strain) was constructed from DNA fragments obtained by reverse transcription-PCR(RT-PCR) of serum RNA (ribonucleic acid) and using primers selected on the basis of homology between other genotype 1a strains.
The BMS, H77C and J4L6S strains were used for production of recombinant NS3/4A protease complexes. […] Briefly, a three-lysine solubilizing tail was added at the 3′-end of the NS4A coding region. […] Briefly, NS3/4A expression was induced with 0.5 mM Isopropyl β-D-1-thiogalactopyranoside (IPTG) for 22 hr at 20° C. […] The crude protein extract was loaded on a Nickel—Nitrilotriacetic acid (Ni-NTA) column pre-equilibrated with buffer B (25 mM HEPES, pH8.0, 20% glycerol, 500 mM NaCl, 0.5% Triton-X100, 15 mM imidazole, 5 mM βME). The sample was loaded at a flow rate of 1 mL/min. The column was washed with 15 column volumes of buffer C (same as buffer B except with 0.2% Triton-X100). The protein was eluted with 5 column volumes of buffer D (same as buffer C except with 200 mM Imidazole).
NS3/4A protease complex-containing fractions were pooled and loaded on a desalting column Superdex-S200 pre-equilibrated with buffer D (25 mM HEPES, pH7.5, 20% glycerol, 300 mM NaCl, 0.2% Triton-X100, 10 mM βME). Sample was loaded at a flow rate of 1 mL/min. NS3/4A protease complex-containing fractions were pooled and concentrated to approximately 0.5 mg/ml.
The enzyme was stored at −80° C., thawed on ice and diluted prior to use in assay buffer. […] The sequence of this peptide is loosely based on the NS4A/NS4B natural cleavage site except there is an ester linkage rather than an amide bond at the cleavage site. The peptide substrate was incubated with one of the three recombinant NS3/4A complexes, in the absence or presence of a compound of the present invention, and the formation of fluorescent reaction product was followed in real time using a Cytofluor Series 4000.
The reagents were as follow: HEPES and Glycerol (Ultrapure) were obtained from GIBCO-BRL. Dimethyl Sulfoxide (DMSO) was obtained from Sigma. β-Mercaptoethanol was obtained from Bio Rad.
Substrate: 2 μM final concentration (from a 2 mM stock solution in DMSO stored at −20° C.). HCV NS3/4A type 1a (1b), 2-3 nM final concentration (from a 5 μM stock solution in 25 mM HEPES, pH7.5, 20% glycerol, 300 mM NaCl, 0.2% Triton-X100, 10 mM βME).
The assay was performed in a 96-well polystyrene black plate from Falcon. Each well contained 25 μl NS3/4A protease complex in assay buffer, 50 μof a compound of the present invention in 10% DMSO/assay buffer and 25 μl substrate in assay buffer. A control (no compound) was also prepared on the same assay plate. The enzyme complex was mixed with compound or control solution for 1 min before initiating the enzymatic reaction by the addition of substrate. The assay plate was read immediately using the Cytofluor Series 4000 (Perspective Biosystems). The instrument was set to read an […] at 25° C. Reactions were generally followed for approximately 15 minutes.
The percent inhibition was calculated with the following equation: 100−[(δFinh/δFcon)×100] where δF is the change in fluorescence over the linear range of the curve.

[2] = system: HCV replicon in Huh7 cells; test: HCV replicon cell-based assay; parameters: species or system HCV strain 1B; settings: Hepatitis C virus, Huh-7; HCV replicon, Huh7 cells; read-out: EC50 range
Source text: HCV Replicon Cell-based Assay
This system enabled us to evaluate the effects of our HCV Protease compounds on HCV RNA replication. Briefly, using the HCV strain 1B sequence described in the Lohmann paper (Assession number:AJ238799), an HCV cDNA was generated encoding the 5′ internal ribosome entry site (IRES), the neomycin resistance gene, the EMCV (encephalomyocarditis virus)-IRES and the HCV nonstructural proteins, NS3-NS5B, and 3′ non-translated region (NTR). In vitro transcripts of the cDNA were transfected into the human hepatoma cell line, Huh7. […] Resulting cell lines were characterized for positive and negative strand RNA production and protein production over time.
Huh7 cells, constitutively expressing the HCV replicon, were grown in Dulbecco's Modified Eagle Media (DMEM) containing 10% Fetal calf serum (FCS) and 1 mg/ml G418 (Gibco-BRL). Cells were seeded the night before (1.5×10^4 cells/well) in 96-well tissue-culture sterile plates. Compound and no compound controls were prepared in DMEM containing 4% FCS, 1:100 Penicillin/Streptomysin, 1:100 L-glutamine and 5% DMSO in the dilution plate (0.5% DMSO final concentration in the assay). Compound/DMSO mixes were added to the cells and incubated for 4 days at 37° C. After 4 days, plates were rinsed thoroughly with Phosphate-Buffered Saline (PBS) (3 times 150 μl). The cells were lysed with 25 μl of a lysis assay reagent containing the FRET peptide (RET S1, as described for the in vitro enzyme assay). The lysis assay reagent was made from 5× cell Luciferase cell culture lysis reagent(Promega #E153A) diluted to 1× with distilled water, NaCl added to 150 mM final, the FRET peptide diluted to 10 μM final from a 2 mM stock in 100% DMSO. The plate was then placed into the Cytofluor 4000 instrument which had been set to 340 nm excitation/490 emission, automatic mode for 21 cycles and the plate read in a kinetic mode. EC50 determinations were carried out as described for the IC50 determinations.
Cells were lyzed using the Rneasy kit (Qiagen). […] All primers were designed with ABI Prism 7700 software and obtained from Biosearch Technologies, Novato, Calif. Samples containing known concentrations of HCV RNA transcript were run as standards. Using the following cycling protocol (50° C., 30 min; 95° C., 5 min; 40 cycles of 95° C., 15 sec, 60° C., 1 min), HCV RNA expression was quantitated as described in the Perkin Elmer manual using the ABI Prism 7700 Sequence Detector.

Row | SMILES | IC50 [1] [nM] | EC50 [2] [nM]
1 | C=C[C@@H]1C[C@]1(NC(=O)[C@@H]1C[C@@H](Oc2cncc(-c3ccccc3)c2)CN1C(=O)[C@@H](NC(=O)OC(C)(C)C)C(C)(C)C)C(=O)NS(=O)(=O)C1CC1 [Compound 420] | < 100 | 100 to 1000
2 | C=CC1C[C@]1(NC(=O)[C@@H]1C[C@@H](Oc2nc(-c3csc(N(C)C)n3)cc3cc(OC)ccc23)CN1C(=O)[C@@H](NC(=O)OC(C)(C)C)C(C)(C)C)C(=O)NS(=O)(=O)C1CC1 (some centres unmarked) [Compound 322] | < 100 | < 100
3 | C=C[C@@H]1C[C@]1(NC(=O)[C@@H]1C[C@@H](Oc2nccc3c(Cl)c(OC)ccc23)CN1C(=O)[C@@H](NC(=O)OC(C)(C)C)C(C)(C)C)C(=O)NS(=O)(=O)C1CC1 [Compound 275] | < 100 | < 100
4 | CC[C@@H]1C[C@]1(NC(=O)[C@@H]1C[C@@H](Oc2nccc3cc(OC)c(F)cc23)CN1C(=O)[C@@H](NC(=O)OC(C)(C)C)C(C)(C)C)C(=O)NS(=O)(=O)C1CC1 [Compound 298] | < 100 | < 100
5 | C=C[C@@H]1C[C@]1(NC(=O)[C@@H]1C[C@@H](Oc2nccc3cccc(C)c23)CN1C(=O)[C@@H](NC(=O)OC(C)(C)C)C(C)(C)C)C(=O)NS(=O)(=O)C1CC1 [Compound 263] | 100 to 1000 | 100 to 1000
6 | C=CC1C[C@]1(NC(=O)[C@@H]1C[C@@H](Oc2nccc(-c3cccs3)n2)CN1C(=O)[C@@H](NC(=O)OC)C(C)(C)C)C(=O)NS(=O)(=O)C1CC1 (some centres unmarked) [Compound 337] | 100 to 1000 | 1000 to 10000
7 | C=C[C@@H]1CC1(NC(=O)[C@@H]1CC(Oc2nccc3cc(OC)ccc23)CN1C(=O)[C@@H](NC(=O)OC1CCCC1)C(C)(C)C)C(=O)NS(=O)(=O)C1CC1 (some centres unmarked) [Compound 70] | < 100 | < 100
8 | C=CC1CC1(NC(=O)C1CC(Oc2nc(Br)c(OCOCC[Si](C)(C)C)c3ccccc23)CN1C(=O)C(NC(=O)OC(C)(C)C)C(C)(C)C)C(=O)NS(=O)(=O)C1CC1 (centres unmarked) [Compound 225] | < 100 | 100 to 1000
9 | C=C[C@@H]1C[C@]1(NC(=O)[C@@H]1C[C@@H](Oc2nccc3cc(OC)ccc23)CN1C(=O)[C@@H](NC(=O)OC(C)(C)C)C(C)C)C(=O)NS(=O)(=O)C1CC1 [Compound 12] | < 100 | < 100
10 | C=C[C@@H]1C[C@]1(NC(=O)[C@@H]1C[C@@H](Oc2nc(C)cc3ccccc23)CN1C(=O)[C@@H](NC(=O)OC(C)(C)C)C(C)(C)C)C(=O)NS(=O)(=O)C1CC1 [Compound 33] | < 100 | < 100
11 | C=C[C@@H]1C[C@]1(NC(=O)[C@@H]1C[C@@H](Oc2nc(-c3ncc(OC)o3)cc3cc(OC)ccc23)CN1C(=O)[C@@H](NC(=O)OC(C)(C)C)C(C)(C)C)C(=O)NS(=O)(=O)C1CC1 [Compound 39] | < 100 | < 100
12 | C=C[C@@H]1C[C@]1(NC(=O)[C@@H]1C[C@@H](Oc2nccc3cc(OC)ccc23)CN1C(=O)[C@H](CC(=O)O)NC(=O)OC(C)(C)C)C(=O)NS(=O)(=O)C1CC1 [Compound 140] | < 100 | 1000 to 10000
13 | C=CC1C[C@]1(NC(=O)[C@@H]1C[C@@H](Oc2nc(-c3ccncc3)cc3cc(OC)ccc23)CN1C(=O)[C@@H](NC(=O)OC(C)(C)C)C(C)(C)C)C(=O)NS(=O)(=O)C1CC1 (some centres unmarked) [Compound 325] | < 100 | < 100
14 | C=C[C@@H]1C[C@]1(NC(=O)[C@@H]1C[C@@H](Oc2nc(OC)cc3ccccc23)CN1C(=O)[C@@H](NC(=O)OC(C)(C)C)C(C)(C)C)C(=O)NS(=O)(=O)C1CC1 [Compound 35] | < 100 | < 100
15 | C=CC1C[C@]1(NC(=O)[C@@H]1C[C@@H](Oc2nccc3c(SC)c(OC)ccc23)CN1C(=O)[C@@H](NC(=O)OC(C)(C)C)C(C)(C)C)C(=O)NS(=O)(=O)C1CC1 (stereo partly drawn) [Compound 207, BOCNH-P3(L-t-BuGly)-P2 [(4R)-(6-methoxy-5-methylthio-isoquinolin-1-oxo)-S-proline]-P1(1R,2S VinylAcca)-CONHSO2Cyclopropane] | < 100 | < 100
16 | C=C[C@@H]1C[C@]1(NC(=O)[C@@H]1CC(Oc2nccc3cc(OC)ccc23)CN1C(=O)[C@@H](NC(=O)OC(C)(C)c1ccccc1)C(C)(C)C)C(=O)NS(=O)(=O)C1CC1 (some centres unmarked) [Compound 72] | < 100 | 100 to 1000
17 | C=C[C@@H]1C[C@]1(NC(=O)[C@@H]1CC(Oc2nccc3cc(OC)ccc23)CN1C(=O)[C@@H](NC(=O)C(CC)CC)C(C)(C)C)C(=O)NS(=O)(=O)C1CC1 (some centres unmarked) [Compound 57] | < 100 | 100 to 1000
18 | C=C[C@@H]1C[C@]1(NC(=O)[C@@H]1C[C@@H](Oc2ncc(OC)c3cc(OC)ccc23)CN1C(=O)[C@@H](NC(=O)OC(C)(C)C)C(C)(C)C)C(=O)NS(=O)(=O)C1CC1 [Compound 279] | < 100 | < 100
19 | CC[C@@H]1C[C@]1(NC(=O)[C@@H]1C[C@@H](Oc2ncc(OC)c3ccccc23)CN1C(=O)[C@@H](NC(=O)OC(C)(C)C)C(C)(C)C)C(=O)NS(=O)(=O)C1CC1 [Compound 291] | < 100 | < 100
20 | C=C[C@@H]1C[C@]1(NC(=O)[C@@H]1C[C@@H](Oc2nccc3cc(OC)ccc23)CN1C(=O)[C@@H](NC(=O)N[C@H](C(=O)OC)C(C)(C)C)C(C)(C)C)C(=O)NS(=O)(=O)C1CC1 [Compound 146] | – | < 100
21 | C=C[C@@H]1C[C@]1(NC(=O)[C@@H]1C[C@@H](Oc2nccc3cc(OC)ccc23)CN1C(=O)[C@@H](NC(=O)N[C@@H](C)COC)C(C)(C)C)C(=O)NS(=O)(=O)C1CC1 [Compound 153] | – | < 100
22 | C=C[C@@H]1C[C@]1(NC(=O)[C@@H]1C[C@@H](Oc2ncc(OC)c3ccc(Cl)cc23)CN1C(=O)[C@@H](NC(=O)OC(C)(C)C)C(C)(C)C)C(=O)NS(=O)(=O)C1CC1 [Compound 277] | – | < 100
